Common to all, as to format: cell-based, Human
What all share (details): Drug 2 in combination with 6-(4-(tert-butyl)phenoxy)pyridin-3-amine (Drug 1), 72 hours

The subject of assay [1] is RPMI-8402 leukemic cells. Briefly: alamarBlue combination screening with 6-(4-(tert-butyl)phenoxy)pyridin-3-amine, ZIP synergy analysis. On the procedure: (§1) The kinase inhibitors listed in table 1 were used in combination with 6-(4-(tert-butyl) phenoxy)pyridin-3-amine.
(§2) Cells were treated with a combination of 6-(4-(tert-butyl) phenoxy)pyridin-3-amine (concentration range from 150 nM to […]) and chemical compounds listed in table 1 (concentration range from 75 nM to 20 μM) for 72 hours. Concentration range used for each compound was determined based on individual IC50 values i.e concentration range selected flanks IC50 value of each compound. Each of the 8 compounds were combined with 6-(4-(tert-butyl) phenoxy)pyridin-3-amine at different concentrations generating an 8×10 matrix in duplicates, alamarBlue® readout was taken using Infinite® F500 (Tecan) plate reader. All volumes (cells and alamarBlue®) were dispensed using Multidrop Combi dispenser using a standard cassette (Speed MEDIUM).
(§3) Compound management and dispensing: All compounds were prepared as stock solution at 10 mM in pure DMSO. […] To create 384 well working plates, different volumes of stock solutions were plated into 384 well plates by using ECHO 550 acoustic dispenser (Labcyte) to generate the final concentration of interest for each drug, either alone or in matrix combination.
(§4) alamarBlue® viability assay: alamarBlue® proliferation assays were performed to determine the growth kinetics of compound treated cells, alamarBlue® consists of a cell permeable substrate resazurin. In metabolically active and proliferating cells, resazurin is converted to resorufin due to an intrinsic reducing power of live cells and produces a red fluorescence. Therefore, production of resorufin serves as an indicator of the viability of the cell population. Proliferation assays were performed by seeding 1500 cells/well in 384 well plate format. Cells were treated in duplicates with pre-determined concentration of compounds as a single agent or in combination with 6-(4-(tert-butyl) phenoxy)pyridin-3-amine for 72 hours. To determine growth kinetics, alamarBlue® (Invitrogen) was added to each well and incubated for 4 hours, alamarBlue® readout was taken using Infinite® F500 (Tecan) plate reader.
(§5) Data analysis for combination screening: Synergistic interaction analysis was performed using SynergyFinder software as described by Ianevski A, He L, Aittokallio T, Tang J. Bioinformatics. […] To mitigate the impact of edge-effects, correction was applied for all analyses. Regions of interest were defined as concentration combination showing both synergistic interaction and significant absolute activity (>60%).

Assay [2] relates to HCC1187 triple negative breast cancer cells. The assay is described as above. The procedure: as §1, §2, §3, §4, §5
For assay [3], the system named is MCF-7 ER+ breast cancer cells. The assay is described as above. On the procedure:
as §1, §2, §3, §4, §5

In assay [4] the test system is RPMI-8402 leukemic cells. As to the kind of experiment: PrestoBlue combination screening with 6-(4-(tert-butyl)phenoxy)pyridin-3-amine, ZIP synergy analysis. The procedure: (§6) Cell lines and drug combinations: Human T-ALL, AML and breast cancer cell lines RPMI-8402, MV-4-11 and HCC1187 were cultured under mycoplasma free conditions at 37° C. in RPMI-1640 media supplemented with 10% FCS (RPMI-8402 and HCC1187 cells) and IMDM media supplemented with 10% FCS (MV-4-11 cells). The kinase inhibitors listed in table 5 were used in combination with 6-(4-(tert-butyl) phenoxy)pyridin-3-amine.
(§7) 6-(4-(tert-butyl) phenoxy)pyridin-3-amine combination screening: Human cancer cells RPMI-8402, MV-4-11 and HCC1187 were seeded at a density of 10′000 cells/well in 96 well plate format and cultured in 100 μl of growth media. Cells were treated with a combination of 6-(4-(tert-butyl) phenoxy)pyridin-3-amine (concentration range from 30 nM to 100 μM) and chemical compounds listed in table 5 (concentration range from 1 μM to 100 μM) for 72 hours. Concentration range used for each compound was determined based on individual IC50 values i.e concentration range selected flanks IC50 value of each compound. Each of the 2 compounds were combined with 6-(4-(tert-butyl) phenoxy)pyridin-3-amine at different concentrations generating an 6×9 matrix in duplicates. PrestoBlue® readout was taken using Sense (Hidex) plate reader.
(§8) PrestoBlue® viability assay: PrestoBlue® proliferation assays were performed to determine the growth kinetics of compound treated cells. PrestoBlue® consists of a cell permeable substrate resazurin. In metabolically active and proliferating cells, resazurin is converted to resorufin due to an intrinsic reducing power of live cells and produces a red fluorescence. Therefore, production of resorufin serves as an indicator of the viability of the cell population. Proliferation assays were performed by seeding 10′000 cells/well in 96 well plate format. Cells were treated in triplicates (single agent) or duplicates (combinations) with pre-determined concentration of compounds as a single agent or in combination with 6-(4-(tert-butyl) phenoxy)pyridin-3-amine for 72 hours. To determine growth kinetics, PrestoBlue® (Invitrogen) was added to each well and incubated for 4 hours. PrestoBlue® readout was taken using Sense (Hidex) plate reader.
(§9) Data analysis for combination screening: Synergistic interaction analysis was performed using SynergyFinder software as described by Ianevski A, He L, Aittokallio T, Tang J. Bioinformatics. 2017 Aug. 1;33 (15): 2413-2415. doi: 10.1093/bioinformatics/btx162.SynergyFinder: a web application for analyzing drug combination dose-response matrix data). […] Regions of interest were defined as concentration combination showing both synergistic interaction and significant absolute activity (>60%).

Assay [5] concerns HCC1187 triple negative breast cancer cells. The assay is described as above. On the procedure:
as §6, §7, §8, §9

In the next assay the test system is MV-4-11 leukemic cells. Described as above. On the procedure: as §6, §7, §8, §9

Structures can show the parent of a compound that is named as a salt.

`CO[C@H]1C[C@@H]2CC[C@@H](C)[C@@](O)(O2)C(=O)C(=O)N2CCCC[C@H]2C(=O)O[C@H]([C@H](C)C[C@@H]2CC[C@@H](OC(=O)C(C)(CO)CO)[C@H](OC)C2)CC(=O)[C@H](C)/C=C(\C)[C@@H](O)[C@@H](OC)C(=O)[C@H](C)C[C@H](C)/C=C/C=C/C=C/1C` [Temsirolimus, 42-[3-Hydroxy-2-(hydroxymethyl)-2-methylpropanoate]-rapamycin]: the Conclusion entry (with RPMI-8402 leukemic cells [1]; in assay [2]; in assay [3]) was “Synergistic (>0 implies synergistic interaction)” in each case. Besides, the ZIP score with RPMI-8402 leukemic cells [1] stood at 18.03; in assay [2], 23.04; in assay [3], 23.81.
For `CC[C@H](Nc1ncnc2[nH]cnc12)c1nc2cccc(F)c2c(=O)n1-c1ccccc1` [Idelalisib, 5-Fluor-3-phenyl-2-{(1S)-1-[(7H-purin-6-yl)amino]propyl}chinazolin-4 (3H)-on], in the assay on RPMI-8402 leukemic cells [1], the Conclusion result is on record as “Synergistic (>0 implies synergistic interaction)” and the ZIP score is 1.12.
In the case of `Cn1c(=O)n(-c2ccc(C(C)(C)C#N)cc2)c2c3cc(-c4cnc5ccccc5c4)ccc3ncc21` [BEZ235, 4-[2,3-dihydro-3-methyl-2-oxo-8-(3-quinolinyl)-1H-imidazo[4,5-c]quinolin-1-yl]-a,a-dimethyl-benzeneacetonitrile], the Conclusion result (in the assay on RPMI-8402 leukemic cells [1]; in assay [2]; in assay [3]) was “Synergistic (>0 implies synergistic interaction)” each time. For the same compound, the results for the ZIP score (in the assay with RPMI-8402 leukemic cells [1]; in assay [2]; in assay [3]) were 7.20, 13.94 and 17.40, respectively.
For `COc1cc2nccc(Oc3ccc(NC(=O)NC4CC4)c(Cl)c3)c2cc1C(N)=O` [Lenvatinib, 4-(3-chloro-4-(3-cyclopropylureido)phenoxy)-7-methoxyquinoline-6-carboxamide], the Conclusion entry (in the assay with RPMI-8402 leukemic cells [4]; in assay [5]; with MV-4-11 leukemic cells) was “Synergistic (>0 implies synergistic interaction)” in each case. Further, the results for the ZIP score (with RPMI-8402 leukemic cells [4]; in assay [5]; in the assay on MV-4-11 leukemic cells) were 41.4, 11.2 and 5.9, respectively.
As to `CC(C)c1cc(CNc2nc(Nc3cc(C4CC4)[nH]n3)cc(N3CCN(C)CC3)n2)on1` [XL228, N4-(5-cyclopropyl-1H-pyrazol-3-yl)-N2-[[3-(1-methylethyl)-5-isoxazolyl]methyl]-6-(4-methyl-1-piperazinyl)-2,4-pyrimidinediamine], the Conclusion entry (in the assay with RPMI-8402 leukemic cells [1]; in assay [2]; in assay [3]) was “Synergistic (>0 implies synergistic interaction)” throughout. The ZIP score with RPMI-8402 leukemic cells [1] turned out to be 15.0; in assay [2] it was 23.67; in assay [3], 21.86.
As to `O=C(Nc1c[nH]nc1-c1nc2cc(CN3CCOCC3)ccc2[nH]1)NC1CC1` [AT9283, N-Cyclopropyl-N′-[3-[6-(4-morpholinylmethyl)-1H-benzimidazol-2-yl]-1H-pyrazol-4-yl]-urea], the Conclusion result (in the assay on RPMI-8402 leukemic cells [1]; in assay [2]; in assay [3]) was “Synergistic (>0 implies synergistic interaction)” in each case. The ZIP score is 12.40 in the assay with RPMI-8402 leukemic cells [1], 12.99 in assay [2] and 8.38 in assay [3].
In the case of `CNC(=O)c1ccccc1Sc1ccc2c(/C=C/c3ccccn3)n[nH]c2c1` [Axitinib, N-Methyl-2-[[3-[(E)-2-pyridin-2-ylethenyl]-1H-indazol-6-yl]sulfanyl]benzamide], the Conclusion entry (in the assay on RPMI-8402 leukemic cells [4]; in assay [5]; in the assay on MV-4-11 leukemic cells) was “Synergistic (>0 implies synergistic interaction)” throughout.
On to `C[C@@H](Oc1cc(-c2cnn(C3CCNCC3)c2)cnc1N)c1c(Cl)ccc(F)c1Cl` [Crizotinib, 3-[(1R)-1-(2,6-dichloro-3-fluorophenyl)ethoxy]-5-[1-(4-piperidinyl)-1H-pyrazol-4-yl]-2-pyridinamine], for which, in the assay with RPMI-8402 leukemic cells [1], the Conclusion entry is “Synergistic (>0 implies synergistic interaction)” and the ZIP score worked out at 2.38. In addition, in assay [2], the Conclusion entry is reported as “No (0 implies no interaction)” and the ZIP score came out at 0.10.
Regarding `NC1(c2ccc(-c3nc4ccn5c(=O)[nH]nc5c4cc3-c3ccccc3)cc2)CCC1` [MK-2206, 8-[4-(1-aminocyclobutyl)phenyl]-9-phenyl-1,2,4-triazolo[3,4-f][1,6]naphthyridin-3 (2H)-one, dihydrochloride], the Conclusion entry (with RPMI-8402 leukemic cells [1]; in assay [2]; in assay [3]) was “Synergistic (>0 implies synergistic interaction)” throughout. In addition, the ZIP score with RPMI-8402 leukemic cells [1] worked out at 8.51; in assay [2], 14.89; in assay [3], 16.97.
Take `CC#CC(=O)N1CCC[C@H]1c1nc(-c2ccc(C(=O)Nc3ccccn3)cc2)c2c(N)nccn12` [Acalabrutinib, 4-[8-amino-3-[(2S)-1-(1-oxo-2-butyn-1-yl)-2-pyrrolidinyl]imidazo[1,5-a]pyrazin-1-yl]-N-2-pyridinyl-benzamide]: the Conclusion entry (in the assay on RPMI-8402 leukemic cells [1]; in assay [2]; in assay [3]) was “Synergistic (>0 implies synergistic interaction)” throughout. For the same compound, the figures for the ZIP score (in the assay on RPMI-8402 leukemic cells [1]; in assay [2]; in assay [3]) were 0.70, 3.33 and 6.86, respectively.
